# ChEMBL document CHEMBL3526083, “Prediction of relative in vivo metabolite exposure from in vitro data using two model drugs: dextromethorphan and omeprazole” (Drug Metab Dispos, 2012)
# Assays:
# Liver microsome [1] = experiment: Drug metabolism in human liver microsomes assessed as 3-hydroxymorphinan formation measured as microsomal fraction unbound; assay type: ADME
# Liver microsome [2] = experiment: Drug metabolism in human liver microsomes assessed as dextrophan-O-glucuronide formation measured as intrinsic unbound clearance; assay type: ADME
# Liver microsome [3] = experiment: Drug metabolism in human liver microsomes assessed as 3-hydroxymorphinan formation measured as plasma fraction unbound; assay type: ADME, cell-free
# Liver microsome [4] = experiment: Drug metabolism in human liver microsomes assessed as 3-hydroxymorphinan formation measured as intrinsic unbound clearance; assay type: ADME
# Liver microsome [5] = experiment: Drug metabolism in human liver microsomes assessed as dextrophan-O-glucuronide formation measured as intrinsic clearance in presence of 2% BSA; assay type: ADME
# Liver microsome [6] = experiment: Drug metabolism in human liver microsomes assessed as 3-hydroxymorphinan formation measured per mg of microsomal protein; assay type: ADME
# Liver microsome [7] = experiment: Drug metabolism in human liver microsomes assessed as dextrophan-O-glucuronide formation measured as plasma fraction unbound; assay type: ADME, cell-free
# Liver microsome [8] = experiment: Drug metabolism in human liver microsomes assessed as dextrophan-O-glucuronide formation measured as intrinsic unbound clearance in presence of 2% BSA; assay type: ADME
# [9] = target: T1, UDP-glucuronosyltransferase 1A1 (Homo sapiens, UniProt P22309); experiment: Drug metabolism assessed as recombinat UGT1A1 (unknown origin) -mediated dextrophan-O-glucuronide formation; assay type: ADME
# T1 sequence (P22309 whole entry): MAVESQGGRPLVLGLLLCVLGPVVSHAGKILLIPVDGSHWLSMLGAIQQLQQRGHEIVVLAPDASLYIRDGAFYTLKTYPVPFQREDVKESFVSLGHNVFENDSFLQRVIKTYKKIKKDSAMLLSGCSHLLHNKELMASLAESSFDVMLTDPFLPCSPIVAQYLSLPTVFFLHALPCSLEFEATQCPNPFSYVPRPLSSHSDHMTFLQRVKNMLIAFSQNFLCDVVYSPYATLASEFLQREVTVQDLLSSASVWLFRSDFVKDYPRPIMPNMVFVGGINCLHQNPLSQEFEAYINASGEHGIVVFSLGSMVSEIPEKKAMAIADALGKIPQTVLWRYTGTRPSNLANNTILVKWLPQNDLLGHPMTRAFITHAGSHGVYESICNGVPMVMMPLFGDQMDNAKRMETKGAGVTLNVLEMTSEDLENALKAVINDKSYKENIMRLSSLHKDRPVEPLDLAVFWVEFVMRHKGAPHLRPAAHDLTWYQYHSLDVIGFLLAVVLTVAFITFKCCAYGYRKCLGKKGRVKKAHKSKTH
# [10] = target: T2, UDP-glucuronosyltransferase 1A7 (Homo sapiens, UniProt Q9HAW7); experiment: Drug metabolism assessed as recombinat UGT1A7 (unknown origin) -mediated dextrophan-O-glucuronide formation; assay type: ADME
# T2 sequence (Q9HAW7 whole entry): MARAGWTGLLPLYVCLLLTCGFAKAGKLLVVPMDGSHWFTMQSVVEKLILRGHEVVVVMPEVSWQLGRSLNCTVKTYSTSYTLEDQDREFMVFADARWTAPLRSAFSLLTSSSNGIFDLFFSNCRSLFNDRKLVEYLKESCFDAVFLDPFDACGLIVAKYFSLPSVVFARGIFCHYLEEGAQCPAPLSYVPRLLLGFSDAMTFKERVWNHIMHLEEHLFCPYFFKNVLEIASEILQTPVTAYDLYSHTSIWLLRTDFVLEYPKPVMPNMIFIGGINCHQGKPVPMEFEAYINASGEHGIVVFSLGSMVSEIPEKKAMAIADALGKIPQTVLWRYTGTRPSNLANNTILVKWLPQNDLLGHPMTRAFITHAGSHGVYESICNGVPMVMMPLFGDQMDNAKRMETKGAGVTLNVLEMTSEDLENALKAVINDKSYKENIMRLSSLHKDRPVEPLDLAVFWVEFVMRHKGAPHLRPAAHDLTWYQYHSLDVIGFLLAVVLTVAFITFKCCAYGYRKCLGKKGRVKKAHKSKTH
# [11] = target: T3, UDP-glucuronosyltransferase 2B4 (Homo sapiens, UniProt P06133); experiment: Drug metabolism assessed as recombinat UGT2B4 (unknown origin) -mediated dextrophan-O-glucuronide formation; assay type: ADME
# T3 sequence (P06133 whole entry): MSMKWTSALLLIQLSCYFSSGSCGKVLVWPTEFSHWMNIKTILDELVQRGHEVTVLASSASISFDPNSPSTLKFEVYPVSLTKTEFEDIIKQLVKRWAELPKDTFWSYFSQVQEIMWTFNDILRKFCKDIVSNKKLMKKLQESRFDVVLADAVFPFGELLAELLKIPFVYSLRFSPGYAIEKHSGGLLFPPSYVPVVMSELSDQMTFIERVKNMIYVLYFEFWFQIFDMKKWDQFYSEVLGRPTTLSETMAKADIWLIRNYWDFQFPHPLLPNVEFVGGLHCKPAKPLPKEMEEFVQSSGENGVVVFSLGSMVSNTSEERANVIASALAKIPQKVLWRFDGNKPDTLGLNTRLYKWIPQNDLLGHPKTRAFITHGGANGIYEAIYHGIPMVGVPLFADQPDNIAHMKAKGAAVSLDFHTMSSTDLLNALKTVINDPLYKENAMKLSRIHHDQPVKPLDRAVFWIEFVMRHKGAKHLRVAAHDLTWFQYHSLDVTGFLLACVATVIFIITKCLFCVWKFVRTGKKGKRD
# Liver microsome [12] = experiment: Drug metabolism in human liver microsomes assessed as 3-hydroxymorphinan formation; assay type: ADME
# Liver microsome [13] = experiment: Drug metabolism in human liver microsomes assessed as dextrophan-O-glucuronide formation measured as microsomal fraction unbound in presence of 2% BSA; assay type: ADME
# Liver microsome [14] = experiment: Drug metabolism in human liver microsomes assessed as dextrophan-O-glucuronide formation measured per mg of microsomal protein; assay type: ADME
# [15] = target: T4, UDP-glucuronosyltransferase 1A3 (Homo sapiens, UniProt P35503); experiment: Drug metabolism assessed as recombinat UGT1A3 (unknown origin) -mediated dextrophan-O-glucuronide formation; assay type: ADME
# T4 sequence (P35503 whole entry): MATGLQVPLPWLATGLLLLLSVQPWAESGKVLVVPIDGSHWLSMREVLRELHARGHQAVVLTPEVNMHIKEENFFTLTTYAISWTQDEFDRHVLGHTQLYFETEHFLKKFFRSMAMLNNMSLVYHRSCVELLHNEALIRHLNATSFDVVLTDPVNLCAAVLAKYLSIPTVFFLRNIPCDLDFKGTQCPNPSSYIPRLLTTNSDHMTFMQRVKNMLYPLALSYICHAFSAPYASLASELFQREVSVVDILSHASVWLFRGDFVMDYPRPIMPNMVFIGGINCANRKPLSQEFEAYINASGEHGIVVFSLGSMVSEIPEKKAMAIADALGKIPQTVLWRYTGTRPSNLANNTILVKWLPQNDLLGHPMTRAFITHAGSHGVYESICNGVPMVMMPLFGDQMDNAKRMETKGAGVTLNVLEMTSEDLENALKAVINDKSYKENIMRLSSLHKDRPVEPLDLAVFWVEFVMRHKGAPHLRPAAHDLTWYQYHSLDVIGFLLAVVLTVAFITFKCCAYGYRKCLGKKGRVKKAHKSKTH
# Liver microsome [16] = experiment: Drug metabolism in human liver microsomes assessed as 3-hydroxymorphinan formation measured as intrinsic clearance; assay type: ADME
# Liver microsome [17] = experiment: Drug metabolism in human liver microsomes assessed as dextrophan-O-glucuronide formation; assay type: ADME
# Liver microsome [18] = experiment: Drug metabolism in human liver microsomes assessed as dextrophan-O-glucuronide formation measured per mg of microsomal protein in presence of 2% BSA; assay type: ADME
# Liver microsome [19] = experiment: Drug metabolism in human liver microsomes assessed as dextrophan-O-glucuronide formation measured as intrinsic clearance; assay type: ADME
structure (smiles),measurement,setting,value
CN1CC[C@@]23CCCC[C@@H]2[C@@H]1Cc1ccc(O)cc13 [DEXTRORPHAN],Fu,Liver microsome [1],1
same,CL free,Liver microsome [2],2.9 µL/min/mg
same,Fu,Liver microsome [3],0.55
same,CL free,Liver microsome [4],0.95 µL/min/mg
same,CLH,Liver microsome [5],11 µL/min/mg
same,Vmax,Liver microsome [6],0.8 nmol/min
same,Fu,Liver microsome [7],0.55
same,CL free,Liver microsome [8],12 µL/min/mg
same,Drug metabolism,[9],metabolite_not_detected
same,Drug metabolism,[10],metabolite_not_detected
same,Drug metabolism,[11],metabolite_detected
same,Km,Liver microsome [12],910 µM
same,Fu,Liver microsome [13],0.88
same,Vmax,Liver microsome [14],2 nmol/min
same,Drug metabolism,[15],metabolite_not_detected
same,CLH,Liver microsome [16],0.88 µL/min/mg
same,Km,Liver microsome [17],690 µM
same,Vmax,Liver microsome [18],2.3 nmol/min
same,CLH,Liver microsome [19],2.9 µL/min/mg
